28 compounds from patent US9815854B2, “3-(3H-imidazo[4,5-B]pyridin-2-yl)-1H-pyrazolo[3,4-C]pyridine and therapeutic uses thereof” (Samumed, LLC, priority 2014, dated 2017) can be followed below.

Test [1] relates to Wnt activity (Sp5-Luc reporter, TCF/LEF binding sites) in SW480 colon carcinoma cells. Nature of the test: Sp5-Luc Wnt reporter gene screening assay in SW480 colon carcinoma cells. As to conditions: Homo sapiens. The class given is cell-based, human. In a few lines:
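SW480 cells stably transduced with a lentiviral luciferase reporter driven by a Sp5 promoter with eight TCF/LEF sites were plated at 10,000/well in 10% FCS medium. Luminescence was normalised to DMSO and IC50 derived by four-parameter fit.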

Test [2] relates to primary human fibroblasts derived from IPF patients (LL29 cells). Nature of the test: Inhibition of the fibrotic process in TGF-β1-treated primary human fibroblasts from IPF patients (αSMA staining). The class given is cell-based. As to conditions: Fibroblast, 96 h, TGF-β1 20 ng/mL, 4 days, read-out: Inhibition of fibrosis EC50. In a few lines:
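IPF-derived LL29 lung fibroblasts, 1,500 per well in F12 with 1% FBS, treated with compound (10 μM to […], 0.1% DMSO) and TGF-β1 20 ng/mL for 4 days at 37 °C. αSMA-positive live cells imaged and normalised to TGF-β1 controls; EC50 by nonlinear regression over triplicate wells.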

By IC50 is commonly meant the point on the concentration scale where inhibition reaches its midpoint. Low values mean greater potency in that assay, high ones weaker potency in that assay. What is called EC50 is the concentration giving half of the maximal effect. As to `O=C(Cc1ccccc1)Nc1cncc(-c2cc3c(-c4nc5cccnc5[nH]4)n[nH]c3cn2)c1` [Compound 244, N-(5-(3-(3H-Imidazo[4,5-b]pyridin-2-yl)-1H-pyrazolo[3,4-c]pyridin-5-yl)pyridin-3-yl)-2-phenylacetamide], in test [1], the IC50 is above 10000 nM. Further, the EC50 in test [2] is 992 nM.
Taken in the same sequence, the figures for `CC(C)(C)CC(=O)Nc1cncc(-c2cc3c(-c4nc5cccnc5[nH]4)n[nH]c3cn2)c1` [Compound 250, N-(5-(3-(3H-Imidazo[4,5-b]pyridin-2-yl)-1H-pyrazolo[3,4-c]pyridin-5-yl)pyridin-3-yl)-3,3-dimethylbutanamide] were above 10000 nM and at least 9990 nM.
In turn, `O=C(Nc1cncc(-c2cc3c(-c4nc5cccnc5[nH]4)n[nH]c3cn2)c1)C1CCCCC1` [Compound 256, N-(5-(3-(3H-Imidazo[4,5-b]pyridin-2-yl)-1H-pyrazolo[3,4-c]pyridin-5-yl)pyridin-3-yl)cyclohexanecarboxamide] gave an IC50 in test [1] of 796 nM. In addition, the EC50 in test [2] is at least 9990 nM.
The corresponding values for `Cc1ccncc1-c1cc2c(-c3nc4c(-c5ccsc5)ccnc4[nH]3)n[nH]c2cn1` [Compound 265, 5-(4-Methylpyridin-3-yl)-3-(7-(thiophen-3-yl)-3H-imidazo[4,5-b]pyridin-2-yl)-1H-pyrazolo[3,4-c]pyridine] are 26.1 nM and 34 nM.
`O=C(Nc1cncc(-c2cc3c(-c4nc5c(-c6ccsc6)ccnc5[nH]4)n[nH]c3cn2)c1)c1ccccc1` [Compound 271, N-(5-(3-(7-(Thiophen-3-yl)-3H-imidazo[4,5-b]pyridin-2-yl)-1H-pyrazolo[3,4-c]pyridin-5-yl)pyridin-3-yl)benzarnide] showed an IC50 in test [1] of 16.6 nM. For the same compound, the EC50 in test [2] was 51 nM.
`CCCC(=O)Nc1cncc(-c2cc3c(-c4nc5c(-c6ccsc6)ccnc5[nH]4)n[nH]c3cn2)c1` [Compound 277, N-(5-(3-(7-(Thiophen-3-yl)-3H-imidazo[4,5-b]pyridin-2-yl) 1H-pyrazolo[3,4-c]pyridin-5-yl)pyridin-3-yl)butyramide]: the IC50 in test [1] was determined as 24.9 nM. The EC50 in test [2] worked out at 158 nM.
Take `c1ccc(CNCc2cncc(-c3cc4c(-c5nc6c(-c7ccsc7)ccnc6[nH]5)n[nH]c4cn3)c2)cc1` [Compound 283, N-benzyl-1-(5-(3-(7-(thiophen-3-yl)-3H-imidazo[4,5-b]pyridin-2-yl)-1H-pyrazolopyridin-5-yl)pyridin-3-yl) methenamine]: the IC50 in test [1] amounted to 74.7 nM. Besides, the EC50 in test [2] is above 10000 nM.
With `CC(C)Nc1cncc(-c2cc3c(-c4nc5c(-c6ccoc6)ccnc5[nH]4)n[nH]c3cn2)c1` [Compound 298, 5-(3-(7-(Furan-3-yl)-3H-imidazo[4,5-b]pyridin-2-yl)-1H-pyrazolo[3,4-c]pyridin-5-yl)-N-isopropylpyridin-3-amine], the IC50 in test [1] turned out to be 46.8 nM. In addition, the EC50 in test [2] was 472 nM.
As to `CCCC(=O)Nc1cncc(-c2cc3c(-c4nc5c(-c6ccoc6)ccnc5[nH]4)n[nH]c3cn2)c1` [Compound 303, N-(5-(3-(7-(Furan-3-yl)-3H-imidazo[4,5-b]pyridin-2-yl)-1H-pyrazolo[3,4-c]pyridin-5-yl)pyridin-3-yl)butyramide], in test [1], the IC50 was found to be 78.8 nM. The EC50 in test [2] turned out to be 20 nM.
On to `CCCCC(=O)Nc1cncc(-c2cc3c(-c4nc5c(-c6ccoc6)ccnc5[nH]4)n[nH]c3cn2)c1` [Compound 304, N-(5-(3-(7-(Furan-3-yl)-3H-imidazo[4,5-b]pyridin-2-yl)-1H-pyrazolo [3,4c]pyridin-5-yl)pyridin-3-yl)pentanamide], for which the IC50 in test [1] amounted to 60.7 nM. Besides, the EC50 in test [2] was determined as 3650 nM.
In test [1], `c1cc(-c2ccoc2)c2nc(-c3n[nH]c4cnc(-c5cncc(CNCC6CCCC6)c5)cc34)[nH]c2n1` [Compound 310, 1-Cyclopentyl-N-((5-(3-(7-(furan-3-yl)-3H-imidazo[4,5-b]pyridin-2-yl)-1H-pyrazolo[3,4-c]pyridin-5-yl)pyridin-3-yl)methyl)methanamine] had an IC50 of 243 nM. Further, the 50% effective concentration (EC50) in test [2] was determined as 641 nM.
`CCC(=O)Nc1cncc(-c2cc3c(-c4nc5c(-c6cccs6)ccnc5[nH]4)n[nH]c3cn2)c1` [Compound 313] yielded an IC50 in test [1] of 71.7 nM. Further, the EC50 in test [2] worked out at 39 nM.
Turning to `CN(C)c1cncc(-c2cc3c(-c4nc5c(-c6cccs6)ccnc5[nH]4)n[nH]c3cn2)c1` [Compound 319], the IC50 in test [1] stood at 125 nM. For the same compound, in test [2], the 50% effective concentration (EC50) worked out at 75 nM.
In test [1], `CC(C)(C)C(=O)Nc1cncc(-c2cc3c(-c4nc5c(-c6cccs6)ccnc5[nH]4)n[nH]c3cn2)c1` [Compound 320] showed an IC50 of 42.6 nM. In addition, the EC50 in test [2] is 25 nM.
Taken in the same sequence, the figures for `CC(C)Nc1cncc(-c2cc3c(-c4nc5c(-c6cccs6)ccnc5[nH]4)n[nH]c3cn2)c1` [Compound 324, N-Isopropyl-5-(3-(7-(thiophen-2-yl)-3H-imidazo[4,5-b]pyridin-2-yl)-1H-pyrazolo[3,4-c]pyridin-5-yl)pyridin-3-amine] were 58.5 nM and at least 9990 nM.
`CN(C)Cc1cncc(-c2cc3c(-c4nc5c(-c6cccs6)ccnc5[nH]4)n[nH]c3cn2)c1` [Compound 325, N,N-Dimethyl-1-(5-(3-(7-(thiophen-2-yl)-3H-imidazo[4,5-b]pyridin-2-yl)-1H-pyrazolo[3,4-c]pyridin-5-yl)pyridin-3-yl)methanamine] showed an IC50 in test [1] of 137 nM. Also, the EC50 in test [2] turned out to be 254 nM.
On to `O=C(Nc1cncc(-c2cc3c(-c4nc5c(-c6cccs6)ccnc5[nH]4)n[nH]c3cn2)c1)C1CC1` [Compound 331], for which the IC50 in test [1] was determined as 83.1 nM. Moreover, the EC50 in test [2] worked out at 319 nM.
Consider `FC1(F)CCN(Cc2cncc(-c3cc4c(-c5nc6c(-c7cccs7)ccnc6[nH]5)n[nH]c4cn3)c2)C1` [Compound 337], for which the IC50 in test [1] came to 24.8 nM. For the same compound, the EC50 in test [2] turned out to be 114 nM.
On to `CC(C)CC(=O)Nc1cncc(-c2cc3c(-c4nc5c(-c6ccc(F)s6)ccnc5[nH]4)n[nH]c3cn2)c1` [Compound 340, N -(5-(3-(7-(5-Fluorothiophen-2-yl)-3H-imidazo[4,5-b]pyridin-2-yl)-1H-pyrazolo[3,4-c]pyridin-5-yl)pyridin-3-yl)-3-methylbutanamide], for which the IC50 in test [1] stood at 27 nM. Further, the EC50 in test [2] was 767 nM.
Taken in the same sequence, the figures for `Cc1ccc(-c2ccnc3[nH]c(-c4n[nH]c5cnc(-c6cncc(N)c6)cc45)nc23)s1` [Compound 367, 5-(3-(7-(5-Methylthiophen-2-yl)-3H-imidazo[4,5-b]pyridin-2-yl)-1H-pyrazolo[3,4-c]pyridin-5-yl)pyridin-3-amine] were 22.6 nM and at most 9 nM.
The compound `Cc1ccc(-c2ccnc3[nH]c(-c4n[nH]c5cnc(-c6cncc(NC(=O)C(C)(C)C)c6)cc45)nc23)s1` [Compound 372, N-(5-(3-(7-(5-Methylthiophen-2-yl)-3H-imidazo[4,5-b]pyridin-1)-1H-pyrazolo[3,4-c]pyridin-5-yl)pyridin-3-yl)pivalamide] had an IC50 in test [1] of 24.8 nM. In test [2], the EC50 was 220 nM.
The compound `Cc1ccc(-c2ccnc3[nH]c(-c4n[nH]c5cnc(-c6cncc(NC(=O)C(C)C)c6)cc45)nc23)s1` [Compound 373, N-(5-(3-(7-(5-Methylthiophen-2-yl)-3H-imidazo[4,5-b]pyridin-2-yl)-1H-pyrazolo[3,4-c]pyridin-5-yl)pyridin-3-yl)isobutyramide] displayed an IC50 in test [1] of 16.4 nM. The concentration giving a half-maximal response (EC50) in test [2] was at most 9 nM.
Regarding `Cc1ccc(-c2ccnc3[nH]c(-c4n[nH]c5cnc(-c6cncc(NC(C)C)c6)cc45)nc23)s1` [Compound 376, N-Isopropyl-5-(3-(7-(5-methylthiophen-2-yl)-3H-imidazo[4,5-b]pyridin-2-yl)-1H-pyrazolo[3,4-c]pyridin-5-yl)pyridin-3-amine], the IC50 in test [1] came out at 10.6 nM. The EC50 in test [2] is at least 9990 nM.
In test [1], `Cc1ccc(-c2ccnc3[nH]c(-c4n[nH]c5cnc(-c6cncc(CN7CCCCC7)c6)cc45)nc23)s1` [Compound 379, 3-(7-(5-Methylthiophen-2-yl)-3H-imidazo[4,5-b]pyridin-2-yl)-5-(5-(piperidin-1-ylmethyl)pyridin-3-yl)-1H-pyrazolo[3,4-c]pyridine] registered an IC50 of 180 nM. Further, in test [2], the EC50 stood at 299 nM.
`Cc1ccc(-c2ccnc3[nH]c(-c4n[nH]c5cnc(-c6cncc(NC(=O)C7CCCC7)c6)cc45)nc23)s1` [Compound 385]: the IC50 in test [1] amounted to 84.4 nM. The EC50 in test [2] is 106 nM.
The compound `CC(=O)c1ccc(-c2ccnc3[nH]c(-c4n[nH]c5cnc(-c6cncc(NC(=O)CC(C)(C)C)c6)cc45)nc23)s1` [Compound 406, N-(5-(3-(7-(5-Acetylthiophen-2-yl)-3H-imidazo[4,5-b]pyridin-2-yl)-1H-pyrazolo[3,4-c]pyridin-5-yl)pyridin-3-yl)-3,3-dimethylbutanamide] displayed an IC50 in test [1] above 10000 nM. Besides, the EC50 in test [2] is at least 9990 nM.
For the compound `CC(=O)c1ccc(-c2ccnc3[nH]c(-c4n[nH]c5cnc(-c6cncc(NC(=O)C7CCCCC7)c6)cc45)nc23)s1` [Compound 412, N-(5-(3-(7-(5-Acetylthiophen-2-yl)-3H-imidazo[4,5-b]pyridin-2-yl)-1H-pyrazolo[3,4-c]pyridin-5-yl)pyridin-3-yl)cyclohexanecarboxamide], the IC50 in test [1] was above 10000 nM. In test [2], the EC50 is at least 9990 nM.
Taken in the same sequence, the figures for `CS(=O)(=O)NCc1cc(F)cc(-c2ccnc3[nH]c(-c4n[nH]c5cnc(-c6cncc(NC(=O)c7ccccc7)c6)cc45)nc23)c1` [Compound 427, N-(5-(3-(7-(3-Fluoro-5-(methylsulfonamidomethyl)phenyl)-3H-imidazo[4,5-b]pyridin-2-yl)-1H-pyrazolo[3,4-c]pyridin-5-yl)pyridin-3-yl)benzamide] were above 10000 nM and at least 9990 nM.
